In the supplement of paper PMC10883282:

How the values were obtained:
Assay in all cases: relative viability vs DMSO control (72 h) (fraction); higher = more viable cells
SK-LMS-1 = system: SK-LMS-1
How it was run: (§1)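 Sarcoma cell lines were plated in 384 wells to reach 80–90% confluence, treated after 24 h with 2.5 µl of serially diluted compound and held 72 h at 37 °C, 5% CO2. Relative viability was taken as percent growth from ATPLite readings, averaged over up to triplicate wells. The values were rescaled so that 1 marks full and 0 marks none.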

VA-ES-BJ = system: VA-ES-BJ
How it was run: as §1

KHOS-240S = system: KHOS-240S
How it was run: as §1

A204 = system: A204
How it was run: as §1

MES-SA = system: MES-SA
How it was run: as §1

SW1353 = system: SW1353
How it was run: as §1

SK-ES-1 = system: SK-ES-1
How it was run: as §1

RD = system: RD
How it was run: as §1

SW872 = system: SW872
How it was run: as §1

G401 = system: G401
How it was run: as §1

HS729 = system: HS729
How it was run: as §1

SW982 = system: SW982
How it was run: as §1

COc1cc(CCc2cc(NC(=O)c3ccc(N4CC(C)NC(C)C4)cc3)n[nH]2)cc(OC)c1 (configuration not stated) [AZD-4547]
Conditions	relative viability
A204, 0.00017 µM	1.04
A204, 0.00051 µM	1.06
A204, 0.00152 µM	1.04
A204, 0.00457 µM	1.02
A204, 0.01372 µM	1.02
A204, 0.04115 µM	0.841
A204, 0.1235 µM	0.714
A204, 0.3704 µM	0.625
A204, 1.111 µM	0.556
A204, 3.333 µM	0.463
A204, 10 µM	0.274
G401, 0.00017 µM	1
G401, 0.00051 µM	0.999
G401, 0.00152 µM	0.964
G401, 0.00457 µM	0.976
G401, 0.01372 µM	0.9
G401, 0.04115 µM	0.845
G401, 0.1235 µM	0.706
G401, 0.3704 µM	0.589
G401, 1.111 µM	0.486
G401, 3.333 µM	0.356
G401, 10 µM	0.136
HS729, 0.00017 µM	1.02
HS729, 0.00051 µM	0.918
HS729, 0.00152 µM	0.914
HS729, 0.00457 µM	0.901
HS729, 0.01372 µM	0.827
HS729, 0.04115 µM	0.83
HS729, 0.1235 µM	0.65
HS729, 0.3704 µM	0.627
HS729, 1.111 µM	0.57
HS729, 3.333 µM	0.473
HS729, 10 µM	0.265
KHOS-240S, 0.00017 µM	1.04
KHOS-240S, 0.00051 µM	1.07
KHOS-240S, 0.00152 µM	1.036
KHOS-240S, 0.00457 µM	1.02
KHOS-240S, 0.01372 µM	1.02
KHOS-240S, 0.04115 µM	0.9306
KHOS-240S, 0.1235 µM	0.841
KHOS-240S, 0.3704 µM	0.784
KHOS-240S, 1.111 µM	0.72
KHOS-240S, 3.333 µM	0.619
KHOS-240S, 10 µM	0.288
MES-SA, 0.00017 µM	0.886
MES-SA, 0.00051 µM	0.888
MES-SA, 0.00152 µM	0.92
MES-SA, 0.00457 µM	0.921
MES-SA, 0.01372 µM	0.894
MES-SA, 0.04115 µM	0.89
MES-SA, 0.1235 µM	0.789
MES-SA, 0.3704 µM	0.708
MES-SA, 1.111 µM	0.655
MES-SA, 3.333 µM	0.554
MES-SA, 10 µM	0.266
RD, 0.00017 µM	1.03
RD, 0.00051 µM	1.08
RD, 0.00152 µM	1.07
RD, 0.00457 µM	1.07
RD, 0.01372 µM	1.08
RD, 0.04115 µM	1.1
RD, 0.1235 µM	1.063
RD, 0.3704 µM	1.08
RD, 1.111 µM	1.06
RD, 3.333 µM	0.858
RD, 10 µM	0.419
SK-ES-1, 0.00017 µM	1.02
SK-ES-1, 0.00051 µM	1.02
SK-ES-1, 0.00152 µM	1.01
SK-ES-1, 0.00457 µM	1
SK-ES-1, 0.01372 µM	1.05
SK-ES-1, 0.04115 µM	0.947
SK-ES-1, 0.1235 µM	0.928
SK-ES-1, 0.3704 µM	0.878
SK-ES-1, 1.111 µM	0.821
SK-ES-1, 3.333 µM	0.483
SK-ES-1, 10 µM	0.141
SK-LMS-1, 0.00017 µM	0.9811
SK-LMS-1, 0.00051 µM	0.953
SK-LMS-1, 0.00152 µM	0.944
SK-LMS-1, 0.00457 µM	0.993
SK-LMS-1, 0.01372 µM	0.938
SK-LMS-1, 0.04115 µM	0.991
SK-LMS-1, 0.1235 µM	0.954
SK-LMS-1, 0.3704 µM	0.9652
SK-LMS-1, 1.111 µM	0.986
SK-LMS-1, 3.333 µM	0.965
SK-LMS-1, 10 µM	0.645
SW872, 0.00017 µM	1.05
SW872, 0.00051 µM	1
SW872, 0.00152 µM	1
SW872, 0.00457 µM	0.991
SW872, 0.01372 µM	0.987
SW872, 0.04115 µM	0.976
SW872, 0.1235 µM	0.963
SW872, 0.3704 µM	0.954
SW872, 1.111 µM	0.926
SW872, 3.333 µM	0.725
SW872, 10 µM	0.465
SW982, 0.00017 µM	1
SW982, 0.00051 µM	1
SW982, 0.00152 µM	1.02
SW982, 0.00457 µM	1.018
SW982, 0.01372 µM	0.982
SW982, 0.04115 µM	1
SW982, 0.1235 µM	1
SW982, 0.3704 µM	0.995
SW982, 1.111 µM	0.922
SW982, 3.333 µM	0.591
SW982, 10 µM	0.206
SW1353, 0.00017 µM	1.06
SW1353, 0.00051 µM	1.03
SW1353, 0.00152 µM	1.03
SW1353, 0.00457 µM	0.981
SW1353, 0.01372 µM	0.938
SW1353, 0.04115 µM	0.886
SW1353, 0.1235 µM	0.893
SW1353, 0.3704 µM	0.849
SW1353, 1.111 µM	0.821
SW1353, 3.333 µM	0.829
SW1353, 10 µM	0.595
VA-ES-BJ, 0.00017 µM	1.05
VA-ES-BJ, 0.00051 µM	1.01
VA-ES-BJ, 0.00152 µM	1.03
VA-ES-BJ, 0.00457 µM	1.02
VA-ES-BJ, 0.01372 µM	1.01
VA-ES-BJ, 0.04115 µM	0.975
VA-ES-BJ, 0.1235 µM	0.983
VA-ES-BJ, 0.3704 µM	1.02
VA-ES-BJ, 1.111 µM	1.07
VA-ES-BJ, 3.333 µM	0.987
VA-ES-BJ, 10 µM	0.681
